# In ChEMBL document CHEMBL4382234, “Fluoroquinolone-isatin hybrids and their biological activities” (Eur J Med Chem, 2019):
# System: Mycobacterium tuberculosis
# Test: Antimycobacterial activity against multidrug-resistant Mycobacterium tuberculosis 09710 by rapid direct susceptibility test
# Type: functional
row,SMILES,MIC [µg/mL]
1,COc1c(N2C[C@@H]3CCCN(CN4C(=O)/C(=N\NC(N)=S)c5cc(F)ccc54)[C@@H]3C2)c(F)cc2c(=O)c(C(=O)O)cn(C3CC3)c12,0.39 to 16
2,COc1c(N2C[C@@H]3CCCN(CCN4C(=O)C(=O)c5cc(F)ccc54)[C@@H]3C2)c(F)cc2c(=O)c(C(=O)O)cn(C3CC3)c12,0.39 to 16
3,CO/N=C1\C(=O)N(CN2CCC[C@H]3CN(c4c(F)cc5c(=O)c(C(=O)O)cn(C6CC6)c5c4OC)C[C@H]32)c2ccccc21,0.39 to 16
4,CO/N=C1\C(=O)N(CN2CCC[C@H]3CN(c4c(F)cc5c(=O)c(C(=O)O)cn(C6CC6)c5c4OC)C[C@H]32)c2ccc(F)cc21,0.39 to 16
5,CCO/N=C1\C(=O)N(CCN2CCC[C@H]3CN(c4c(F)cc5c(=O)c(C(=O)O)cn(C6CC6)c5c4OC)C[C@H]32)c2ccc(F)cc21,0.39 to 16
6,CO/N=C1\C(=O)N(CCN2CCC[C@H]3CN(c4c(F)cc5c(=O)c(C(=O)O)cn(C6CC6)c5c4OC)C[C@H]32)c2cc(F)ccc21,0.39 to 16
7,COc1c(N2C[C@@H]3CCCN(CCN4C(=O)/C(=N\O)c5ccccc54)[C@@H]3C2)c(F)cc2c(=O)c(C(=O)O)cn(C3CC3)c12,0.39 to 16
8,COc1c(N2C[C@@H]3CCCN(CCN4C(=O)/C(=N\O)c5cc(F)ccc54)[C@@H]3C2)c(F)cc2c(=O)c(C(=O)O)cn(C3CC3)c12,0.39 to 16
9,CCO/N=C1\C(=O)N(CN2CCC[C@H]3CN(c4c(F)cc5c(=O)c(C(=O)O)cn(C6CC6)c5c4OC)C[C@H]32)c2ccccc21,0.39 to 16
10,COc1c(N2C[C@@H]3CCCN(CN4C(=O)/C(=N\NC(N)=O)c5ccccc54)[C@@H]3C2)c(F)cc2c(=O)c(C(=O)O)cn(C3CC3)c12,0.39 to 16
11,COc1c(N2C[C@@H]3CCCN(CN4C(=O)/C(=N\NC(N)=O)c5cc(F)ccc54)[C@@H]3C2)c(F)cc2c(=O)c(C(=O)O)cn(C3CC3)c12,0.39 to 16
12,COc1c(N2C[C@@H]3CCCN(CN4C(=O)/C(=N\NC(N)=S)c5ccccc54)[C@@H]3C2)c(F)cc2c(=O)c(C(=O)O)cn(C3CC3)c12,0.39 to 16
13,CO/N=C1\C(=O)N(CCN2CCC[C@H]3CN(c4c(F)cc5c(=O)c(C(=O)O)cn(C6CC6)c5c4OC)C[C@H]32)c2ccccc21,0.39 to 16
14,COc1c(N2C[C@@H]3CCCN(CN4C(=O)C(=O)c5cc(F)ccc54)[C@@H]3C2)c(F)cc2c(=O)c(C(=O)O)cn(C3CC3)c12,0.39 to 16
15,CCO/N=C1\C(=O)N(CCN2CCC[C@H]3CN(c4c(F)cc5c(=O)c(C(=O)O)cn(C6CC6)c5c4OC)C[C@H]32)c2ccccc21,0.39 to 16
16,COc1c(N2C[C@@H]3CCCN(CCN4C(=O)C(=O)c5ccccc54)[C@@H]3C2)c(F)cc2c(=O)c(C(=O)O)cn(C3CC3)c12,0.39 to 16
17,CCO/N=C1\C(=O)N(CN2CCC[C@H]3CN(c4c(F)cc5c(=O)c(C(=O)O)cn(C6CC6)c5c4OC)C[C@H]32)c2ccc(F)cc21,0.39 to 16
18,COc1c(N2C[C@@H]3CCCN(CCN4C(=O)/C(=N\NC(N)=S)c5ccccc54)[C@@H]3C2)c(F)cc2c(=O)c(C(=O)O)cn(C3CC3)c12,0.39 to 16
19,COc1c(N2C[C@@H]3CCCN(CN4C(=O)/C(=N\O)c5cc(F)ccc54)[C@@H]3C2)c(F)cc2c(=O)c(C(=O)O)cn(C3CC3)c12,0.39 to 16
20,COc1c(N2C[C@@H]3CCCN[C@@H]3C2)c(F)cc2c(=O)c(C(=O)O)cn(C3CC3)c12 [MOXIFLOXACIN],0.1 to 1
21,COc1c(N2C[C@@H]3CCCN(CCN4C(=O)/C(=N\NC(N)=O)c5ccccc54)[C@@H]3C2)c(F)cc2c(=O)c(C(=O)O)cn(C3CC3)c12,0.39 to 16
22,COc1c(N2C[C@@H]3CCCN(CCN4C(=O)/C(=N\NC(N)=O)c5cc(F)ccc54)[C@@H]3C2)c(F)cc2c(=O)c(C(=O)O)cn(C3CC3)c12,0.39 to 16
23,COc1c(N2C[C@@H]3CCCN(CN4C(=O)C(=O)c5ccccc54)[C@@H]3C2)c(F)cc2c(=O)c(C(=O)O)cn(C3CC3)c12,0.39 to 16
24,COc1c(N2C[C@@H]3CCCN(CN4C(=O)/C(=N\O)c5ccccc54)[C@@H]3C2)c(F)cc2c(=O)c(C(=O)O)cn(C3CC3)c12,0.39 to 16
25,COc1c(N2C[C@@H]3CCCN(CCN4C(=O)/C(=N\NC(N)=S)c5cc(F)ccc54)[C@@H]3C2)c(F)cc2c(=O)c(C(=O)O)cn(C3CC3)c12,0.39 to 16

# System: Mycobacterium tuberculosis
# Test: Antimycobacterial activity against isoniazid/rifampicin/ethambutol-resistant Mycobacterium tuberculosis after 3 to 7 days by rapid direct susceptibility test
# Type: functional
row,SMILES,MIC [µg/mL]
1,O=C(O)c1cn(C2CC2)c2cc(N3CCN(CCCN4C(=O)/C(=N/O)c5ccccc54)CC3)c(F)cc2c1=O,0.1 to 64
2,NC(=O)N/N=C1/C(=O)N(CCCN2CCN(c3cc4c(cc3F)c(=O)c(C(=O)O)cn4C3CC3)CC2)c2ccccc21,0.1 to 64
3,Cc1ccc2c(c1)/C(=N\NC(N)=O)C(=O)N2CCCN1CCN(c2cc3c(cc2F)c(=O)c(C(=O)O)cn3C2CC2)CC1,0.1 to 64
4,Cc1ccc2c(c1)/C(=N\NC(N)=S)C(=O)N2CCCN1CCN(c2cc3c(cc2F)c(=O)c(C(=O)O)cn3C2CC2)CC1,0.1 to 64
5,NC(=S)N/N=C1/C(=O)N(CCCN2CCN(c3cc4c(cc3F)c(=O)c(C(=O)O)cn4C3CC3)CC2)c2ccccc21,0.1 to 64
6,Cc1ccc2c(c1)/C(=N\O)C(=O)N2CCCN1CCN(c2cc3c(cc2F)c(=O)c(C(=O)O)cn3C2CC2)CC1,0.1 to 64

# System: Mycobacterium tuberculosis
# Test: Antimycobacterial activity against multidrug-resistant Mycobacterium tuberculosis after 3 to 7 days by rapid direct susceptibility test
# Type: functional
row,SMILES,MIC [µg/mL]
1,COc1c(N2C[C@@H]3CCCN(Cc4cn(CCN5C(=O)/C(=N/NC(N)=O)c6ccccc65)nn4)[C@@H]3C2)c(F)cc2c(=O)c(C(=O)O)cn(C3CC3)c12,0.1 to 0.78
2,COc1c(N2C[C@@H]3CCCN(Cc4cn(CCN5C(=O)/C(=N/O)c6ccccc65)nn4)[C@@H]3C2)c(F)cc2c(=O)c(C(=O)O)cn(C3CC3)c12,0.1 to 0.78
3,CO/N=C1/C(=O)N(CCn2cc(CN3CCC[C@H]4CN(c5c(F)cc6c(=O)c(C(=O)O)cn(C7CC7)c6c5OC)C[C@H]43)nn2)c2ccc(Br)cc21,0.1 to 0.78
4,COc1c(N2CCNC(C)C2)c(F)cc2c(=O)c(C(=O)O)cn(C3CC3)c12 (centres undefined) [GATIFLOXACIN],1
5,CO[C@H]1/C=C/O[C@@]2(C)Oc3c(C)c(O)c4c(O)c(c(/C=N/N5CCN(C)CC5)c(O)c4c3C2=O)NC(=O)/C(C)=C\C=C\[C@H](C)[C@H](O)[C@@H](C)[C@@H](O)[C@@H](C)[C@H](OC(C)=O)[C@@H]1C [RIFAMPIN],32 to 64
6,CO/N=C1/C(=O)N(CCCN2CCN(c3c(F)cc4c(=O)c(C(=O)O)cn(C5CC5)c4c3OC)CC2C)c2ccc(F)cc21 (centres undefined),0.25
7,COc1c(N2C[C@@H]3CCCN(Cc4cn(CCN5C(=O)C(=O)c6cc(Br)ccc65)nn4)[C@@H]3C2)c(F)cc2c(=O)c(C(=O)O)cn(C3CC3)c12,0.1 to 0.78
8,CCO/N=C1/C(=O)N(CCn2cc(CN3CCC[C@H]4CN(c5c(F)cc6c(=O)c(C(=O)O)cn(C7CC7)c6c5OC)C[C@H]43)nn2)c2ccccc21,0.1 to 0.78
9,COc1c(N2C[C@@H]3CCCN(Cc4cn(CCN5C(=O)/C(=N/NC(N)=O)c6cc(Br)ccc65)nn4)[C@@H]3C2)c(F)cc2c(=O)c(C(=O)O)cn(C3CC3)c12,0.1 to 0.78
10,COc1c(N2C[C@@H]3CCCN(Cc4cn(CCN5C(=O)/C(=N/O)c6cc(Br)ccc65)nn4)[C@@H]3C2)c(F)cc2c(=O)c(C(=O)O)cn(C3CC3)c12,0.1 to 0.78
11,COc1c(N2C[C@@H]3CCCN(Cc4cn(CCN5C(=O)C(=O)c6ccccc65)nn4)[C@@H]3C2)c(F)cc2c(=O)c(C(=O)O)cn(C3CC3)c12,0.1 to 0.78
12,COc1c(N2C[C@@H]3CCCN[C@@H]3C2)c(F)cc2c(=O)c(C(=O)O)cn(C3CC3)c12 [MOXIFLOXACIN],0.12
13,NNC(=O)c1ccncc1 [ISONIAZID],> 128
14,CCO/N=C1/C(=O)N(CCn2cc(CN3CCC[C@H]4CN(c5c(F)cc6c(=O)c(C(=O)O)cn(C7CC7)c6c5OC)C[C@H]43)nn2)c2ccc(Br)cc21,0.1 to 0.78
15,CO/N=C1/C(=O)N(CCn2cc(CN3CCC[C@H]4CN(c5c(F)cc6c(=O)c(C(=O)O)cn(C7CC7)c6c5OC)C[C@H]43)nn2)c2ccccc21,0.1 to 0.78

# System: Mycobacterium tuberculosis
# Test: Potency index, ratio of gatifloxacin MIC to test compound MIC for multidrug-resistant Mycobacterium tuberculosis
# Type: functional
row,SMILES,Ratio
1,CO/N=C1/C(=O)N(CCCN2CCN(c3c(F)cc4c(=O)c(C(=O)O)cn(C5CC5)c4c3OC)CC2C)c2ccc(F)cc21 (centres undefined),>=4 - 512

# System: Mycobacterium tuberculosis
# Test: Potency index, ratio of rifampicin MIC to test compound MIC for multidrug-resistant Mycobacterium tuberculosis
# Type: functional
row,SMILES,Ratio
1,CO/N=C1/C(=O)N(CCCN2CCN(c3c(F)cc4c(=O)c(C(=O)O)cn(C5CC5)c4c3OC)CC2C)c2ccc(F)cc21 (centres undefined),>=4 - 512

# System: Mycobacterium tuberculosis
# Test: Potency index, ratio of isoniazid MIC to test compound MIC for multidrug-resistant Mycobacterium tuberculosis
# Type: functional
row,SMILES,Ratio
1,CO/N=C1/C(=O)N(CCCN2CCN(c3c(F)cc4c(=O)c(C(=O)O)cn(C5CC5)c4c3OC)CC2C)c2ccc(F)cc21 (centres undefined),>=4 - 512
